Patent publication US9446012B2, “Pharmaceutical compounds” (BIAL-PORTELA & CA, S.A., priority 2006, dated 2016)

Columns and labels:
[1] = Plasma levels of L-DOPA and 3-O-methyl-L-DOPA in rats treated with L-DOPA plus benserazide; assay type: in vivo, rat; details: 3 mg/kg
liver COMT = assay: Liver COMT activity after oral administration (methylation of adrenaline to metanephrine in liver homogenates); assay type: in vivo, rat; details: FIG. 1; for inhibition of liver COMT / time to maximal inhibitory effect on liver COMT / inhibition of liver COMT activity: 3 mg/kg; for inhibition of liver COMT: 24 hours after administration; for inhibition of liver COMT activity: nine hours after administration
[2] = Brain levels of L-DOPA, 3-O-methyl-L-DOPA, dopamine, DOPAC and HVA in rats treated with L-DOPA plus benserazide; assay type: in vivo, rat
[3] = Treatment of Parkinson's disease patients on L-DOPA therapy; assay type: in vivo, human; details: tablets containing 50 mg
[4] = 3 mg/kg, administered 24 h in advance
[5] = L-DOPA 12 mg/kg plus benserazide 3 mg/kg, all pre-treatment times (1, 7 and 24 h)
[6] = 3 mg/kg, L-DOPA plus benserazide, all pre-treatment times (1, 7 and 24 h)

With `Cc1ccc(C(=O)c2cc(O)c(O)c([N+](=O)[O-])c2)cc1` [tolcapone, 3,4-dihydroxy-4′-methyl-5-nitrobenzophenone] the 3-O-methyl-L-DOPA plasma levels ([1]; 2 and 7 h after administration) was “Significant changes”, the L-DOPA plasma levels ([1]; 2 and 7 h after administration) was “Significant changes” and the “plasma levels of 3-O-methyl-L-DOPA” value ([1]; administered 24 h in advance) was “not affected”. The “plasma levels of L-DOPA” value ([1]; administered 24 h in advance) was “not affected”, the “inhibition of liver COMT” value (liver COMT) was “almost devoid of COMT inhibitory properties” and the “time to maximal inhibitory effect on liver COMT” value (liver COMT; after administration) was ≤ 30 min. For the same compound, the “inhibition of liver COMT activity” value (liver COMT) was “minimal inhibitory effects”, the “brain levels of 3-O-methyl-L-DOPA” value [2, 4] was “not affected” and the “brain levels of DOPAC” value [2, 4] was “not affected”. For the same compound, the “brain levels of L-DOPA” value [2, 4] was “not affected”, the “brain levels of dopamine” value [2, 4] was “not affected” and the “steadiness of brain delivery of L-DOPA” value ([2]; rat, in vivo) was “marked oscillations”.

For `Cc1nc(Cl)c(-c2noc(-c3cc(O)c(O)c([N+](=O)[O-])c3)n2)c(C)c1Cl` [compound A, 5-[3-(2,5-dichloro-4,6-dimethylpyridin-3-yl)-[1,2,4]oxadiazol-5-yl]-3-nitrobenzene-1,2-diol], the clinical picture [3] was “significant improvement”, the “circulating 3-O-methyl-L-DOPA” value [1, 5] was “marked decrease” and the “plasma L-DOPA” value [1, 5] was “significant increases”. For the same compound, the “inhibition of liver COMT” value (liver COMT) was 60 % of control levels, the “inhibition of liver COMT activity” value (liver COMT) was 90 % of control levels and the “time to maximal inhibitory effect on liver COMT” value (liver COMT; oral administration) was ≤ 360 min. For the same compound, the “inhibitor of liver COMT (in words)” value (liver COMT; oral administration) was “potent inhibitor”, the “brain 3-O-methyl-L-DOPA” value [2, 6] was “marked decrease” and the “brain DOPAC” value [2, 6] was “significant increases”. The “brain L-DOPA” value [2, 6] was “significant increases” and the brain dopamine [2, 6] was “significant increases”.
